From publication PMC8744746 (International Journal of Molecular Sciences, 2021)
Several values for one entry are separate records, joined by “and”; a condition that tells them apart may be missing. Equal values may be shown once. Entries after “also recorded” stand apart in the source; their conditions may differ. Read-outs that look alike come from different tables or passages of the source.

What was measured:
[1] = tested on: Toxoplasma tachyzoite subpellicular microtubules; assay: Subpellicular microtubule length in deoxycholate-extracted tachyzoites (ImageJ); assay type: cell-based, Toxoplasma gondii; settings: drug-treated tachyzoites versus vehicle controls
Experimental: In parallel, we assessed the effect of these candidate tubulin-targeting agents on parasite microtubules, also via tubulin immunofluorescence. Because tachyzoite subpellicular microtubules are unusually resistant to detergent extraction due to the association of SPM1 and other stabilizing luminal proteins, these structures can be specifically isolated for analysis. Vehicle- and drug-treated parasites were incubated with deoxycholate, and the extracted subpellicular microtubule arrays were detected with tubulin immunofluorescence (Figure 4A). Images of parasite microtubules were measured using ImageJ.
To measure the length distribution of Toxoplasma tachyzoite subpellicular microtubules in control and treated parasites, we isolated subpellicular microtubule complexes by deoxycholate extraction of freshly lysed tachyzoites. Briefly, RH parasites were treated with DMSO or candidate drugs in culture for 2 days. Following lysis of host cells, extracellular parasites were centrifuged at 1000× g for 20 min at 4 °C and then resuspended in 1 mL of PBS. Parasites were settled onto poly-l-lysine (Sigma)-coated coverslips for 15 min at room temperature. Coverslips were incubated with 10 mg/mL deoxycholate (DOC) in phosphate-buffered saline (PBS) for 10 min to extract the subpellicular microtubule cytoskeleton. Samples were fixed in 3.7% formyl saline (Sigma) at room temperature for 10–15 min, followed by immunostaining for tubulin, as described above. Extracted subpellicular microtubules in immunofluorescence images were measured using ImageJ.

Toxoplasma = tested on: Toxoplasma; parameters: method as in PMID 28609444; settings: cited from earlier work
[2] = tested on: α-tubulin in T. gondii tachyzoites; assay: Immunoblot quantification of α-tubulin protein in tachyzoites; assay type: cell-based, Toxoplasma gondii; settings: clemastine-treated tachyzoites (8 μM in Figure 4D); DMSO control 0.022
From the text: Parasite equivalents and known concentrations of porcine tubulin standards were resolved by SDS-PAGE for subsequent immunoblot analysis using a broadly cross-reacting α-tubulin monoclonal antibody that recognizes both vertebrate and Toxoplasma tubulin. Band intensity was quantified with ImageJ, and the porcine samples were used to create a standard curve to determine α-tubulin concentration in Toxoplasma samples normalized to parasite equivalents.
The samples were resolved on a 10% SDS-polyacrylamide gel (Bio-Rad) and blotted to nitrocellulose for immunoblot analysis. Blots were probed with a mouse anti-α-tubulin antibody (Sigma T9026; 1:5000) and detected with an IgG anti-mouse secondary antibody conjugated to HRP (Promega, Madison, WI, USA: W4021, 1:10,000). Samples were imaged using a Nikon D700 fitted with a 55 mm f/1.4 Nikkor auto-focus lens and intervening 12 mm Kenko auto-focus extension tube [46]. Exposure times were controlled with a Satechi TRC-B remote shutter control. Band intensity was quantified using ImageJ.

RH-GFP T. gondii = settings: GFP-expressing parasites per vacuole, tracked up to 36 h
From the text: To live image replicating parasites, we used a GFP-expressing Toxoplasma line [29] for invasion assays and replication assays. […] Next, we assessed the effects of the drugs on replication. By adding drug to infected cells after initiating parasite invasion, this assay measures replication independent of any effects on invasion. This methodology may also reveal details induced by drug treatment that are not resolved by the plaque assay, such as changes in parasite shape or acute replication delays. We enumerated the number of GFP-expressing parasites in individual vacuoles at 12-hour intervals over one complete lytic cycle.
HFF cells were grown to confluency in 35 mm coverslip dishes (MatTek, Ashland MA, USA). RH-GFP T. gondii [29] were harvested by filtering freshly lysed parasites. Parasites were diluted 4-fold in D10+ media. After 30 min of invasion at 37 °C, the cell monolayer was washed with PBS to remove extracellular parasites. D10+ media alone, D10+ with DMSO, or drug in DMSO was added to the dishes. Actively growing parasites in fibroblasts were imaged every 12 h over a 48-hour period using a Zeiss Axiovert 200 M and an Axiovision camera to collect 10 random fields of view for each condition. Parasite replication states were manually quantified and tallied to enumerate singlets, doublets, quadruplets, and larger rosettes.

RH-GFP parasites = assay type: cell-based, Toxoplasma gondii; settings: drugs at their EC50 concentrations, clemastine +/− pretreatment
Experimental: The red-green invasion assay using GFP-expressing tachyzoites was adapted from the original protocol. HFF cells were grown to confluency on coverslips in 6-well dishes. RH-GFP parasites were harvested from infected host cells by syringe passage through a 27-gauge needle. Tachyzoites were allowed to adhere to host cells for 20 min at 37 °C in a high-potassium “Endo” buffer. The buffer was replaced with warm invasion medium (DMEM + various drug conditions). Parasite invasion occurred under control or drug-treated conditions for 3 min (short invasion time) or 30 min (long invasion time) at 37 °C in a humidified 5% CO2 incubator. After invasion, samples were washed with PBS, fixed with formyl saline without subsequent permeabilization, stained with mouse anti-SAG1 antibody (Invitrogen, Waltham, MA, USA: D61S, 1:1000), and detected with a goat anti-mouse secondary antibody conjugated to Alexa Fluor 594 (Invitrogen A11005, 1:1000). Extracellular, invading, and intracellular parasites were scored from 10 random microscope fields. Invasion was calculated by dividing the number of intracellular parasites by the total number of parasites counted.

HFF cell microtubules = assay: Tubulin immunofluorescence and SFEX quantification of vertebrate microtubules; assay type: cell-based, human; settings: at or above the EC50 for oryzalin, clemastine, astemizole; versus vehicle control
Experimental: Vertebrate sensitivity is assessed using tubulin immunofluorescence to visualize microtubule networks after drug treatment of uninfected human HFF cells in culture (Figure 3A). To quantify microtubule polymer density between treatments, we used the SFEX program [19] to segment and enumerate filaments in a fixed-size region of interest. Treatment with the vertebrate microtubule-depolymerizing colchicine-site ligand combretastatin A4 [32] was used as a positive control to ensure that the SFEX parameters captured partial, as well as total, loss of cytoplasmic microtubules.
HFF cells were seeded subconfluently onto sterile 12-mm circular glass coverslips in 6-well dishes. Cells were grown to semiconfluency (3–4 days). Cultures were exposed to DMSO (vehicle control) and drugs of interest for 60 min at 37 °C. These samples were fixed and permeabilized with ice-cold methanol for 3–5 min and blocked in 10% BSA in Ca^2+, Mg^2+-free PBS at room temperature for 30 min or overnight at 4 °C. […] The open-source software Stress Fiber Extractor 1.0 [19] was used to quantify assembled tubulin (microtubules) present in HFF-cell immunofluorescence images within MATLAB R2015a, using the “Stress Fiber Network” analysis feature. […] Quantitative analysis of the segmented filaments was performed with the Stress Fiber Extractor, with export of data into Excel (Microsoft, Redmond, WA, USA). […]

[3] = tested on: Toxoplasma RH strain tachyzoites; settings: read-out: EC50, Toxoplasma RH Strain; plaque area relative to control after 7 days in HFF monolayers
in vitro = settings: human
Experimental: Because replicating cells may be more vulnerable than confluent monolayers, we evaluated survival of both subconfluent (dividing) and confluent (contact-inhibited) HFF cultures after 72 h of exposure to increasing drug concentrations (Supplemental Figure S4). […] Using this information, we calculated the in vitro therapeutic index for these drugs, which is the ratio of the CC50 to the EC50.
For subconfluent monolayers, approximately 5 × 10^4 HFF cells were plated into each well of a 24-well dish and exposed to D10+ media alone or D10+ with DMSO or drug for 3 days. The plates were processed with the In Vitro Toxicology Assay Kit, MTT based (Sigma Aldrich, TOX1), and A570 was measured in a SpectraMax I3X plate reader. Exported data were analyzed using Microsoft Excel. For confluent monolayers, approximately 5 × 10^4 HFF cells were plated into each well of a 24-well dish and grown in D10+ media alone. Once the cells were confluent, they were gently rinsed with PBS, and D10+ with DMSO or drug was added to each well. The plates were processed as above.

[4] = tested on: Toxoplasma RH strain tachyzoites; assay: microbe, parasite or virus in culture; settings: 168 h, read-out: EC50, Toxoplasma RH Strain, plaque area relative to control after 7 days in HFF monolayers
Experimental: To assess this, we gauged the therapeutic index by measuring compound EC50 for Toxoplasma tachyzoites grown in vertebrate host cells versus the CC50 for uninfected human foreskin fibroblast (HFF) cells. […] After 1 week of parasite growth, we visualized lytic destruction of crystal violet-stained host cells to reveal macroscopic plaques in the monolayer (Figure 2B). Greyscale images of individual wells were analyzed with the open-source program ImageJ [18] using the “threshold” functionality to differentiate between cells (dark gray) and plaques (white). The program calculates plaque number, average size, and percent total area within the field. The EC50 value is determined by graphing the relationship between compound concentrations and percent total plaque area relative to control cultures. […] HFF cells were grown to confluency in 6-well dishes and infected with 300 tachyzoites/well. Individual wells were treated with varying concentrations of drug, and the plates were left undisturbed for 7 days at 37 °C in a humidified 5% CO2 incubator. […] Greyscale photographic images of the plates were analyzed in ImageJ (NIH, Bethesda, MD, USA) using the “threshold” functionality. Plaque number, average size and percent total area were calculated by the program. […]

| Compound | Effect on Toxoplasma subpellicular microtubule length, in words [1] | Effect on tachyzoite replication (RH-GFP T. gondii) | Effect on tachyzoite invasion (RH-GFP parasites) | Effect on vertebrate (HFF) microtubules, in words (HFF cell microtubules) | other results |
| --- | --- | --- | --- | --- | --- |
| CCc1nc(N)nc(N)c1-c1ccc(Cl)cc1 [Pyrimethamine] | does not reduce microtubule length |  |  |  | Effect on Toxoplasma subpellicular microtubule length, in words ([1]; listed as pyrimethamine): not different to that of the vehicle controls |
| OCCOCCN1CCN(C(c2ccccc2)c2ccc(Cl)cc2)CC1 (stereo not shown) [hydroxyzine] |  |  |  |  | EC50 (Toxoplasma): 1000 nM |
| CN1CCC[C@@H]1CCO[C@](C)(c1ccccc1)c1ccc(Cl)cc1 [Clemastine] |  | No delays in replication are detected at 36 hours; also recorded: did not detect overt slowing of replication | does not affect invasion |  | α-tubulin (pg)/tachyzoite [2]: 0.02 pg/tachyzoite and ~ 0.02 pg/tachyzoite |
| COc1ccc(/C=C\c2cc(OC)c(OC)c(OC)c2)cc1O [Combretastatin A4, combretastatin A4] |  |  |  | dose-dependent microtubule disassembly |  |
| Parabulin | significant reduction in microtubule length; also recorded: significant microtubule shortening relative to control samples |  |  |  |  |
| COc1ccc(CCN2CCC(Nc3nc4ccccc4n3Cc3ccc(F)cc3)CC2)cc1 [Astemizole] | smaller but significant decreases in filament length; also recorded: small but significant decrease in microtubule length | No delays in replication are detected at 36 hours; also recorded: did not detect overt slowing of replication | does not affect invasion | do not significantly differ from the vehicle control | EC50 [3]: 2070 nM; CC50 at 72 h (in vitro; HFF CC50 confluent): 18000 nM; CC50 at 72 h (in vitro; HFF CC50 subconfluent): 8830 nM; EC50 [4]: ~2000 nM |
